Laboratory results published in ChEMBL document CHEMBL1133334, “Synthesis and pharmacology of new enantiopure delta(3)-4-arylkainoids” (Bioorg Med Chem Lett, 2000).

These compounds were tested against Glutamate NMDA receptor (assay: Compound was tested for agonistic activity at the N-methyl-D-aspartate glutamate receptor obtained from the rat cortical wedge preparation). Conditions: read-out: KD app.
Type: functional

SMILES	Kd [µM]
O=C(O)CC1=C(c2ccco2)CN[C@@H]1C(=O)O	70
O=C(O)CC1=C(c2ccccc2)CN[C@@H]1C(=O)O	560
COc1ccccc1C1=C(CC(=O)O)[C@@H](C(=O)O)NC1	380
O=C(O)CC1=C(c2ccc3ccccc3c2)CN[C@@H]1C(=O)O	250
O=C(O)CC1=C(c2ccoc2)CN[C@@H]1C(=O)O	85
O=C(O)CC1=C(c2ccsc2)CN[C@@H]1C(=O)O	45
O=C(O)CC1=C(c2cccs2)CN[C@@H]1C(=O)O	20
